Data on four molecules can be found in ChEMBL document CHEMBL1133267, “The total synthesis of piclavines A1-4 and their biological evaluation” (Bioorg Med Chem Lett, 2000).

Molecules are shown by their SMILES. In brackets after ≈: the same amount, converted by molar mass. Activity calls are given as the source filed them. The calls are words filed in the database; no cut-off is given here.

By IC50 is commonly meant the concentration at which inhibition is half-maximal. A higher IC50 goes with weaker potency in that assay. By CC50 is commonly meant the concentration giving 50% cytotoxicity. A low value points to greater toxicity to the cells.

One experiment has as its system Influenza A virus. Kind of experiment: Compound was evaluated for antiviral activity against Influenza virus A/PR/8. The class given is functional, organism-based.
A further experiment concerns MDCK. As to the kind of experiment: Compound was evaluated for inhibition of MDCK cell growth. The class given is functional. The note with it: Canis lupus familiaris.
Experiment [1] relates to Streptococcus pneumoniae. Kind of experiment: Compound was evaluated for antibacterial activity against Streptococcus pneumoniae; IA means Inactive. The experiment is classed as functional, organism-based.
A further experiment has as its system Vero. As to the kind of experiment: Compound was evaluated for inhibition of cell growth of Vero cells. The experiment is classed as functional. The note with it: Chlorocebus sabaeus.
For the next experiment, the system named is Human alphaherpesvirus 1. Kind of experiment: Compound was evaluated for antiviral activity against Herpes simplex virus type 1; ND means Not detected owing to toxicity. The class given is functional, organism-based.
For experiment [2], the system named is Streptococcus pneumoniae. As to the kind of experiment: Compound was evaluated for antibacterial activity against Streptococcus pneumoniae; weak activity. The experiment is classed as functional, organism-based.
Another experiment relates to Candida albicans. Kind of experiment: Compound was evaluated for inhibitory activity on Candida albicans; active. The experiment is classed as functional, organism-based.

As for `CCCCCCC/C=C\C[C@@H]1CCC[C@@H]2CCCN21`, the concentration for half-maximal inhibition (IC50) with Influenza A virus is 4.2 µg/mL (≈ 15.9 µM); with Human alphaherpesvirus 1, “Not detected”. Moreover, the CC50 was determined as 17.1 µg/mL (≈ 64.9 µM) with MDCK and 40.9 µg/mL (≈ 155 µM) in the experiment on Vero. Moreover, the result in the experiment with Streptococcus pneumoniae [1] was inactive.
With `CCCCCCC/C=C/C[C@H]1CCC[C@@H]2CCCN21`, the IC50 in the experiment on Influenza A virus is 4.84 µg/mL (≈ 18.4 µM); in the experiment on Human alphaherpesvirus 1, “Not detected”. In addition, the Activity entry with Streptococcus pneumoniae [2] is “weak activity”. Besides, the CC50 in the experiment on MDCK is 8.92 µg/mL (≈ 33.9 µM); in the experiment with Vero it was 9.18 µg/mL (≈ 34.8 µM).
Turning to `CCCCCCC/C=C\C[C@H]1CCC[C@@H]2CCCN21`, the half-maximal inhibitory concentration (IC50) is 3.72 µg/mL (≈ 14.1 µM) in the experiment with Influenza A virus and “Not detected” with Human alphaherpesvirus 1. Moreover, the Activity entry with Streptococcus pneumoniae [2] is “weak activity”. The CC50 with MDCK was determined as 9.28 µg/mL (≈ 35.2 µM); in the experiment with Vero it was 7.67 µg/mL (≈ 29.1 µM). In addition, the result in the experiment with Candida albicans was Active.
In the case of `CCCCCCC/C=C/C[C@@H]1CCC[C@@H]2CCCN21`, the IC50 was 1.45 µg/mL (≈ 5.5 µM) in the experiment on Influenza A virus and “Not detected” in the experiment with Human alphaherpesvirus 1. Moreover, the values for the half-maximal cytotoxic concentration (CC50) in the experiment on MDCK and in the experiment on Vero were 20.1 µg/mL (≈ 76.3 µM) and 42.3 µg/mL (≈ 161 µM), respectively. Also, in the experiment on Streptococcus pneumoniae [1], the result was inactive.
